Measurements: patent publication US20220073536A1 (Rigel Pharmaceuticals, Inc., priority 2003, published 2022)
Counter-ions that a name gives are not always drawn.

What follows are molecules tested on cultured human mast cells (CHMC) (assay: CHMC low cell density IgE activation: tryptase assay). Conditions: Homo sapiens, Mast cell, low cell density CHMC, IgE activation, tryptase release, 3 pt; read-out: LD Tryptase, CHMC, IgE, 3 pt.
Type: cell-based
How it was run: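 CHMC were seeded at 1000–1500 cells/well in MT buffer and incubated 1 hr at 37 °C. They were then stimulated with anti-IgE for 30 min at 37 °C, with unstimulated wells as controls. Released tryptase in the supernatant was measured with a fluorogenic substrate after 30 min at room temperature.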

IC50, < 10 µM:
COc1cc(Nc2ncc(F)c(Nc3cc(OC)cc(OC)c3)n2)cc(OC)c1 [Compound 340]
C[C@@H]1Oc2ccc(Nc3nc(Nc4ccc5c(cnn5CCCN5C(=O)CCCC5=O)c4)ncc3F)cc2NC1=O [Compound 861, (S)-N2-[1-[3-(2,6-Dioxopiperidino]propyl)indazol-5-yl]-5-fluoro-N4-(2-methyl-3-oxo-2H,4H-benz[1,4]oxazin-6-yl)-2,4-pyrimidinediamine]
COc1cc(Nc2ncc(F)c(Nc3cc(OC)cc(C(F)(F)F)c3)n2)cc(C(F)(F)F)c1 [Compound 333]

Same assay, conditions: Homo sapiens, Mast cell, low cell density CHMC, IgE activation, tryptase release, 8 pt; read-out: LD Tryptase, CHMC, IgE, 8 pt

IC50, < 10 µM:
CC1Sc2ccc(Nc3nc(Nc4ccc5[nH]ncc5c4)ncc3F)cc2NC1=O (stereo not drawn) [Compound 278]
COc1cc(Nc2nc(Nc3cc(OC)c(OC)c(OC)c3)ncc2F)cc(C(F)(F)F)c1 [Compound 335]
COc1cc(Nc2ncc(F)c(Nc3cc(OC)cc(OC)c3)n2)cc(OC)c1 [Compound 340]
CC(=O)NCCCn1ncc2cc(Nc3ncc(F)c(Nc4ccc5c(n4)NC(=O)C(C)(C)O5)n3)ccc21 [Compound 822, N2-[1-[3-(N-Acetylamino)propyl]indazol-5-yl]-N4-(2,2-dimethyl-3-oxo-4H-5-pyrid[1,4]oxazin-6-yl)-5-fluoro-2,4-pyrimidinediamine]
C[C@H]1Oc2ccc(Nc3nc(Nc4ccc5cnn(C)c5c4)ncc3F)cc2NC1=O [Compound 210]
C[C@@H]1Oc2ccc(Nc3nc(Nc4ccc5c(cnn5CCCN5C(=O)CCCC5=O)c4)ncc3F)cc2NC1=O [Compound 861, (S)-N2-[1-[3-(2,6-Dioxopiperidino]propyl)indazol-5-yl]-5-fluoro-N4-(2-methyl-3-oxo-2H,4H-benz[1,4]oxazin-6-yl)-2,4-pyrimidinediamine]
O=C1CS(=O)(=O)c2ccc(Nc3nc(Nc4cccc(O)c4)ncc3F)cc2N1 [Compound 308]

Same assay, conditions: Homo sapiens, Mast cell, low cell density CHMC, IgE activation, tryptase, 3 pt; read-out: LD Tryptase, CHMC, IgE, 3 pt

IC50, < 10 µM:
COc1cc(Nc2nc(Nc3ccc4c(cnn4C4CCCCC4)c3)ncc2F)ccc1F [Compound 745, N2-(1-Cyclohexylindazol-5-yl)-5-fluoro-N4-(4-fluoro-3-methoxyphenyl)-2,4-pyrimidinediamine]
COc1ccc(Nc2ncc(F)c(Nc3ccc4c(c3)NC(=O)C(C)(C)O4)n2)c(OC)c1OC [Compound 672]
CCCn1ncc2ccc(Nc3ncc(F)c(Nc4ccc(Cl)c(Cl)c4)n3)cc21 [Compound 707, N4-(3,4-Dichlorophenyl)-5-fluoro-N2-(1-n-propylindazol-6-yl)-2,4-pyrimidinediamine]
CN(c1ccc(Cl)c(Cl)c1)c1nc(Nc2ccc(C(N)=O)cc2)ncc1F [Compound 1346]
COc1cc(Nc2nc(Nc3cc(C)cc(C(F)(F)F)c3)ncc2F)cc(OC)c1 [Compound 353]
Cc1cc(N2CCN(C)CC2)ncc1Nc1ncc(F)c(NC2CCCCC2)n1 [Compound 1247]
COc1cc(Nc2ncc(F)c(Nc3ccc4c(c3)OCCO4)n2)c(OC)cc1Cl [Compound 379]
CN1CCN(c2ccc(Nc3ncc(F)c(NC(C)(C)C)n3)cc2Cl)CC1 [Compound 1217]
Fc1cnc(Nc2ccc3cnn(CC4CCC4)c3c2)nc1Nc1ccc(Cl)c(Cl)c1 [Compound 731, N2-[1-(Cyclobutylmethyl)indazol-6-yl]-N4-(3,4-dichlorophenyl)-5-fluoro-2,4-pyrimidinediamine]
CCOC(=O)N1CCC(Nc2nc(Nc3ccc(N4CCN(C)CC4)cc3)ncc2F)CC1 [Compound 1225]

Same assay, conditions: Homo sapiens, Mast cell, low cell density CHMC, IgE activation, tryptase, 8 pt; read-out: LD Tryptase, CHMC, IgE, 8 pt

IC50, < 10 µM:
COc1ccc(Nc2nc(Nc3ccc4cnn(CC5CC5)c4c3)ncc2F)cc1Cl [Compound 738, N4-(3-Chloro-4-methoxyphenyl)-N2-[1-(cyclopropylmethyl)indazol-6-yl]-5-fluoro-2,4-pyrimidinediamine]
CCCn1ncc2ccc(Nc3ncc(F)c(Nc4ccc(Cl)c(Cl)c4)n3)cc21 [Compound 707, N4-(3,4-Dichlorophenyl)-5-fluoro-N2-(1-n-propylindazol-6-yl)-2,4-pyrimidinediamine]
CC1(C)Oc2ccc(Nc3nc(Nc4cc(CO)cc(CO)c4)ncc3F)cc2NC1=O [Compound 344, N2-[3,5-Bis (hydoxymethylene)phenyl]-N4-(2,2-dimethyl-3-oxo-4H-benz[1,4]oxazin-6-yl)-5-fluoro-2,4-pyrimidinediamine]
COc1cc(Nc2ncc(F)c(Nc3ccc4c(c3)OCCO4)n2)cc(C(F)(F)F)c1 [Compound 356, N4-(3,4-Ethylenedioxyphenyl)-5-fluoro-N2-(3-methoxy-5-trifluoromethylphenyl)-2,4-pyrimidinediamine]

Same assay, conditions: Homo sapiens, Mast cell, low cell density, IgE activation, 3 pt; read-out: LD Tryptase, CHMC, IgE, 3 pt

IC50, < 10 µM:
COc1ccc(Nc2nc(Nc3ccc4c(cnn4CCCNC(=O)C(C)C)c3)ncc2F)nc1Cl [Compound 893]
CCN(CC)Cc1nc2cc(Nc3ncc(F)c(Nc4ccc(Cl)c(Cl)c4)n3)ccc2n1C [Compound 970]

Same assay, conditions: Homo sapiens, Mast cell, low cell density, IgE activation, 8 pt; read-out: LD Tryptase, CHMC, IgE, 8 pt

IC50, < 10 µM:
Cc1nc2cc(Nc3ncc(F)c(Nc4ccc5c(c4)NC(=O)[C@H](C)O5)n3)ccc2n1CCCO [Compound 950]
CC1(C)Oc2ccc(Nc3nc(Nc4ccc5nc(C(F)(F)F)[nH]c5c4)ncc3F)cc2NC1=O [Compound 539, N4-(2,2-Dimethyl-3-oxo-4H-benz[1,4]oxazin-6-yl)-5-fluoro-N2-(2-trifluoromethyl-3H-benzimidazol-5-yl)-2,4-pyrimidinediamine p-Toluenesulfonic Acid Salt]
Cn1c(C(F)(F)F)nc2cc(Nc3ncc(F)c(Nc4ccc(Cl)c(Cl)c4)n3)ccc21 [Compound 911]

Same assay, conditions: low cell density CHMC, IgE activation, tryptase readout, 8 pt; read-out: LD Tryptase, CHMC, IgE, 8 pt

IC50, < 10 µM:
COc1c(C)cc(Nc2ncc(F)c(Nc3ccc4c(n3)NC(=O)CO4)n2)cc1C [Compound 1059, N2-(3,5-Dimethyl-4-methoxyphenyl)-5-fluoro-N4-(3-oxo-2H,4H-5-pyrid[1,4]oxazin-6-yl)-2,4-pyrimidinediamine]
CC(=O)N1CCN(c2cccc(Nc3ncc(F)c(Nc4ccc5c(n4)NC(=O)CO5)n3)c2)CC1 [Compound 1071, N2-[3-(4-Acetylpiperazino)phenyl]-5-fluoro-N4-(3-oxo-2H,4H-5-pyrid[1,4]oxazin-6-yl)-2,4-pyrimidinediamine]

Same assay, conditions: low cell density CHMC, IgE activation, tryptase release, 8 pt; read-out: LD Tryptase, CHMC, IgE, 8 pt

IC50, < 10 µM:
COc1ccc(Nc2nc(Nc3ccc4c(cnn4CCCN4C(=O)c5ccccc5C4=O)c3)ncc2F)cc1Cl [Compound 815, N4-(3-Chloro-4-methoxyphenyl)-5-fluoro-N2-[1-[3-(N-phthalimidopropyl)]indazol-5-yl]-2,4-pyrimidinediamine]

Same assay, conditions: low cell density CHMC, IgE activation, tryptase, 3 pt; read-out: LD Tryptase, CHMC, IgE, 3 pt

IC50, < 10 µM:
N2- (4-Aminocarbonylphenyl)-N4- (2,2-dimethyl-3-oxo-4H-5-pyrid[1,4]oxazin-6-yl)-5-fluoro-2,4-pyrimidinediamine [Compound 1315]
(R)-N2-[3- (N-tert-Butoxycarbonylamino)methylenephenyl]-5-fluoro-N4- (2-methyl-3-oxo-2H,4H-benz[1,4]oxazin-6-yl) [Compound 1277]
CC(=O)N1CCN(c2cccc(Nc3ncc(F)c(Nc4ccc5c(n4)NCCO5)n3)c2)CC1 [Compound 1137, N2-[3-(4-Acetylpiperazino)phenyl]-N4-(3,4-dihydro-2H,4H-5-pyrid[1,4]oxazin-6-yl)-5-fluoro-2,4-pyrimidinediamine]
COC(=O)CN1C(=O)C(C)(C)Oc2ccc(N(CC(=O)OC)c3nc(Nc4cc(OC)c(OC)c(OC)c4)ncc3F)nc21 [Compound 691, N4-(2,2-Dimethyl-4-carbomethoxymethyl-3-oxo-5-pyrid[1,4]oxazin-6-yl)-5-fluoro-N4-carbomethoxymethyl-N2-(3,4,5-trimethoxyphenyl)-2,4-pyrimidinediamine]
Cc1cc(Nc2ncc(F)c(Nc3ccc4c(n3)NC(=O)C(C)(C)O4)n2)cc(C)c1Cl [Compound 684, N2-(4-Chloro-3,5-dimethylphenyl)-N4-(2,2-dimethyl-3-oxo-4H-5-pyrid[1,4]oxazin-6-yl)-5-fluoro-2,4-pyrimidinediamine p-Toluenesulfonic Acid Salt]
COc1cc(Nc2ncc(F)c(Nc3ccc4c(c3)OC(F)(F)C(F)(F)O4)n2)cc(OC)c1 [Compound 357]

Same assay, conditions: low cell density CHMC, IgE activation, tryptase, 8 pt; read-out: LD Tryptase, CHMC, IgE, 8 pt

IC50, < 10 µM:
(R)-N2-[3- (N-tert-Butoxycarbonylamino)methylenephenyl]-5-fluoro-N4- (2-methyl-3-oxo-2H,4H-benz[1,4]oxazin-6-yl) [Compound 1277]
CC(=O)N1CCN(c2cccc(Nc3ncc(F)c(Nc4ccc5c(n4)NCCO5)n3)c2)CC1 [Compound 1137, N2-[3-(4-Acetylpiperazino)phenyl]-N4-(3,4-dihydro-2H,4H-5-pyrid[1,4]oxazin-6-yl)-5-fluoro-2,4-pyrimidinediamine]
N[C@@H]1CCOc2ccc(Nc3nc(Nc4ccc(-c5ncco5)cc4)ncc3F)cc21 (racemic) [Compound 1294, (R,S)-N4-[4-Amino-3,4-dihydro-2H-1-benzopyran-6-yl]-5-fluoro-N2-[4-(oxazol-2-yl)phenyl]-2,4-pyrimidinediamine]
COc1cc(Nc2ncc(F)c(Nc3ccc4c(c3)OC(F)(F)C(F)(F)O4)n2)cc(OC)c1 [Compound 357]

Same assay, conditions: low cell density, IgE activation, 3 pt; read-out: LD Tryptase, CHMC, IgE, 3 pt

IC50, < 10 µM:
N4- (3-Chloro-4-methoxyphenyl)-5-fluoro-[1- (2-hydroxymethyl)-2-trifluoromethylbenzimidazol-5-yl]-2,4-pyrimidinediamine [Compound 921]

Same assay, conditions: low cell density, IgE activation, 8 pt; read-out: LD Tryptase, CHMC, IgE, 8 pt

IC50, < 10 µM:
N4- (3-Chloro-4-methoxyphenyl)-5-fluoro-[1- (2-hydroxymethyl)-2-trifluoromethylbenzimidazol-5-yl]-2,4-pyrimidinediamine [Compound 921]
CNC(=O)COc1cccc(Nc2ncc(F)c(Nc3ccc(C(=O)NC)c(Cl)c3)n2)c1 [Compound 483, N4-[3-Chloro-4-(N-methylamino)carbonylphenyl]-5-fluoro-N2-[3-(N-methylamino)carbonylmethyleneoxyphenyl]-2,4-pyrimidinediamine]
